Assay results from patent publication US20130078268A1, “VACCINE COMPOSITIONS AND METHODS OF USE THEREOF” (priority 2010, published 2013).
Where no end group is shown, it is not given here. [ ]: non-standard residue; d: D form. pGlu = O=C1CC[C@@H](C(=O)O)N1

Tested on: peptide of SEQ ID NO: 1
Assay: Titer of antibody to the peptide of SEQ ID NO: 1 by peptide-based ELISA in serum of immunised mice
Assay type: in vivo
Conditions: male C57B1 mice; three subcutaneous injections of 100 μg peptide + 100 μg calcium phosphate nanoparticles at 3-week intervals; two weeks after the last injection
Procedure: Four male mice (8-week-old, C57B1) were given, three subcutaneous injections of vaccine composition comprising 100 μg of the peptide SEQ ID NO: 1 and 100 μg of calcium phosphate nanoparticles at 3-week intervals. As controls, an additional four mice received the vehicle. Two weeks after the last injection, the titer of antibody to the peptide of SEQ ID NO: 1 was assessed by the peptide-based enzyme-linked immunosorbent assay (ELISA). Samples were run in triplicate on ELISA plates coated with the peptide of the SEQ ID NO: 1, which was used as the immunogen. The peptide was bound in solid phase on high binding 96 well plates. Serum was diluted 1:500 and then serially diluted to a final dilution of 1:64,000. Detection of the antibody was obtained using an HRP conjugated secondary antibody (1:5,000) and TMB micro well peroxidase substrate.
Four male mice (8-week-old, C57B1) were given three intraperitoneal injections of vaccine composition of example 3 at 3-week intervals. As controls, an additional four mice received the vehicle. Two weeks after the last injection, the titer of antibody to the peptide of SEQ ID NO: 1 was assessed by the peptide-based enzyme-linked immunosorbent assay (ELISA) as described in the example 4. […] Thus, the administering vaccine compositions of the invention elicited protective immunity in animals against endogenous peptide of SEQ ID NO: 1.

pGlu-Pro-Pro-Gly-Gly-Ser-Lys-Val-Ile-Leu-Phe ([pGlu]PPGGSKVILF; listed as Homo sapiens) [peptide SEQ ID NO: 1]
geometric mean titer of anti-SEQ ID NO: 1 antibodies in serum: about 70,000
